Measured values published in paper PMC8788879 (Nuclear medicine and biology, 2020).

Target: Aβ1–40 fibrils (amyloid-β) (Homo sapiens, UniProt P05067)
Assay type: binding

Sequence of Aβ1–40 fibrils (amyloid-β) (P05067 672-711): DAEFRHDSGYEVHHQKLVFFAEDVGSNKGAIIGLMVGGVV

Row | Structure (SMILES) | Ki
1 | COc1cc(/C=C/c2cc(C)c(O)c(C)c2)ccc1/C=C/c1ccc(C(=O)O)cc1 [compound 1, 4-((E)-4-((E)-4-hydroxy-3,5-dimethylstyryl)-2-methoxystyryl) benzoic acid] | 8.6 nM
2 | COc1cc(/C=C/c2ccc(O)cc2)ccc1/C=C/c1ccc(O)cc1 [compound 2, methoxy-X04] | 23.6 nM
